Data set [1] has as its system mouse intraperitoneal macrophages. The data set is described as follows: Measurement of active oxygen released from mouse intraperitoneal macrophages (H2DCFDA fluorescence). The following applies: 50 μM test compound, one hour; FIG. 1. It counts as cell-based. The procedure:
3 ml of 5% thioglycolate medium (Difco, BD, code. 225640, Lot. 6192372) was administered into the abdominal cavity of a mouse (ICR mouse (SPF), 5-week-old, male). Four days after the administration, the mouse was sacrificed with the use of diethyl ether. […] This operation was repeatedly carried out two times. […] Thereafter, the number of macrophages was counted with One Cell Counter (Wakenyaku Co., Ltd.). The obtained macrophages were diluted with an RPMI-1640 medium to have any given concentration. The thus obtained mouse intraperitoneal macrophages were used in the subsequent test.
0.7 g of BSA was weighed into a large test tube. […] Subsequently, protein was quantified using Nano Drop ND-1000, and it was then diluted with sterilized PBS (−) so as to result in a final concentration of 2%. […]
After the macrophages had been washed with HBSG-BSA, they were then suspended in approximately 5 mL of HBSG-BSA, and 100 of the obtained suspension was then dispensed into each well of a 96-well Collagen Well (TC-PLATE 96 WELL, STERILE WITH LID, IND PACKED). […] One hour later, the amount of active oxygen was measured using Genios fluorescence intensity measurement apparatus.
The above-mentioned H2DCFDA is a fluorescent probe, and its fluorescence intensity is increased in the presence of hydrogen peroxide (H2O2).

Data set [2] shares this test system. The data set is described as follows: Measurement of phagocytic ability of mouse intraperitoneal macrophages (fluorescent beads). The conditions noted are these: 50 μM test compound, 2 hours, FIG. 2. In kind it is cell-based. The method, then:
Mouse intraperitoneal macrophages, a 40 mM test compound solution, and an RPMI1640 medium were prepared in the same manner as described above.
In the following experiment, Fluoresbrite (trademark) Carboxylate Microspheres (2.58% Solids-Latex) YG (Polysciences, Inc.) were used as fluorescent beads.
Macrophages were added to a TC-Plate (TC-PLATE 24 WELL, STERILE WITH LID, IND PACKED, greiner bio-one), so that they became 80% confluent. The macrophages were incubated at 37° C. for 2 hours. Thereafter, the supernatant was discarded, and the cells were then washed with 500 μl of RPMI 1640 medium two times. Each composition shown in Table 3 below was added to the TC-Plate, and it was then incubated at 37° C. for 2 hours. Thereafter, the supernatant was discarded, and the cells were then washed with 300 μl of sterilized PBS (−). In order to remove fluorescent beads that had not been incorporated into the cells, the aforementioned washing operation was repeatedly carried out two times. Macrophages were peeled off with 200 μl of sterilized PBS (−), and were then transferred into an Eppendorf tube. The macrophages were centrifuged at 1,500 rpm for 8 minutes. […]
Using FUJI FILM FLA-2000, the amount of fluorescent beads incorporated into the cells was measured [fluorescence intensity (Fluor 473 nm, Y520 Filter)]. For analysis, Image Reader V1.4J was used.

The subject of a further data set is THP-1 cells. Description: Analysis of cytotoxicity to THP-1 cells using trypan blue. It counts as cell-based, human. The following applies: treated for 2 hours and for 24 hours; FIG. 10. The procedure:
The cultured THP-1 cells were transferred into a 50-ml centrifuge tube in a clean bench. The cells were then centrifuged at 1,000 rpm for 5 minutes at 20° C., and the supernatant was then removed. […] 10 μl of this cell suspension was added to a sterile Eppendorf tube, to which 990 μl of serum-free RPMI 1640 medium had previously been added, so that the solution was 100-fold diluted. The number of cells in 10 μl of the 100-fold diluted solution was counted with a blood cell counter, and the cell suspension was diluted with serum-free RPMI 1640 medium to a cell density of 1×10^7 cells/ml.
A test compound (Example 9)/DMSO solution, or DMSO was added to 100 μl of RPMI medium to a concentration of 200 μM. Thereafter, ultrasonic wave was applied to the mixture for 5 seconds. It is to be noted that a test compound, 6-O-(2-decyldecanoyl)-α-glucose (hereinafter referred to as a “control compound B”), and TDCM were used to prepare positive controls in the same manner as described above. In addition, a negative control was prepared by adding no test compounds (vehicle). […] Subsequently, 20 μl of 0.3% trypan blue/PBS (−) was added to the reaction solution so as to suspend the reaction solution therein, and thereafter, the survival rate of the cells was immediately analyzed using a cell number measuring apparatus (CYRORECON).

For data set [3], the system named is Salmonella typhmurium TA98. The data set is described as follows: Mutagenicity test (Ames test). The conditions noted are these: TA98, in the presence or absence of S9 mix; FIG. 11. Background: The Ames test uses bacterial strains that need an amino acid and regain growth without it when mutated back.
Data set [4] concerns IL-6, TNF-α, IFN-γ in mouse plasma. Description: Measurement of IL-6, TNF-α and IFN-γ released into peripheral blood of test compound administered mouse. The conditions noted are these: 100 μg/mouse intravenous, two hours later; for IL-6-releasing activity (mouse plasma IL-6 concentration) compared with TDCM: FIG. 6; for IFN-γ-releasing activity (mouse plasma IFN-γ concentration) compared with TDCM: FIG. 7.

On to `CCCCCCCCCCC(CCCCCCCCCC)C(=O)OCC1O[C@H](O[C@H]2OC(COC(=O)C(CCCCCCCCCC)CCCCCCCCCC)[C@@H](O)C(O)C2O)C(O)C(O)[C@@H]1O` (stereo partly drawn) [Example 1, 6,6′-bis-O-(2-decyldodecanoyl)-α,α′-trehalose], for which the “action to promote the generation of active oxygen from mouse intraperitoneal macrophages, compared with TDCM” value in data set [1] is “two times higher than the activity of TDCM”. In data set [2], the “action to activate the phagocytosis of mouse intraperitoneal macrophages, compared with TDCM” value was “approximately two times higher than the activity of TDCM”. Further, the “cytotoxicity to THP-1 cells (survival rate, trypan blue staining)” value with THP-1 cells is listed as “significant results could be obtained”. In addition, the “mutagenicity (Ames test, number of His colonies)” value in data set [3] is reported as “significant results could be obtained”. In addition, in data set [4], the “IL-6-releasing activity (mouse plasma IL-6 concentration) compared with TDCM” value is given as “approximately 1.2 times” and the “IFN-γ-releasing activity (mouse plasma IFN-γ concentration) compared with TDCM” value is given as “approximately 1.5 times”. The “plasma TNF-α concentration in mice, activity compared with TDCM” value in data set [4] (FIG. 8) is listed as “the same level as that of TDCM”.
As to `CCCCCCCCCC(CCCCCCCCC)CC(=O)OCC1O[C@H](O[C@H]2OC(COC(=O)CC(CCCCCCCCC)CCCCCCCCC)[C@@H](O)C(O)C2O)C(O)C(O)[C@@H]1O` (stereo partly drawn) [Example 9, 6,6′-bis-O-(3-nonyldodecanoyl)-α,α′-trehalose], the “action to promote the generation of active oxygen from mouse intraperitoneal macrophages, compared with TDCM” value in data set [1] is “two times higher than the activity of TDCM”. Further, the “action to activate the phagocytosis of mouse intraperitoneal macrophages, compared with TDCM” value in data set [2] is on record as “approximately two times higher than the activity of TDCM”. In addition, the “cytotoxicity to THP-1 cells (survival rate, trypan blue staining)” value in the data set on THP-1 cells was “cytotoxicity was not observed”. Moreover, the “mutagenicity (Ames test, number of His colonies)” value in data set [3] is on record as “did not exhibit mutagenicity”. For the same compound, in data set [4], the “IL-6-releasing activity (mouse plasma IL-6 concentration) compared with TDCM” value is given as “approximately 1.5 times” and the “IFN-γ-releasing activity (mouse plasma IFN-γ concentration) compared with TDCM” value is “approximately 1.5 times”.

The values above are taken from patent US8741871B2, “Trehalose compound, method for producing same, and pharmaceutical product containing the compound” (priority 2008, dated 2014).
